The melting point is the temperature, or range, at which the solid turns liquid. The term IC50 denotes the point on the concentration scale where inhibition reaches its midpoint. For orientation: ED50 means the dose at which the effect has come halfway, by size or by number of responders.

The structures appear in SMILES notation. Where a name gives a salt, the structure may show the parent alone.

In one data set the target is dopamine D2 receptors (Rattus norvegicus, UniProt P61169). Nature of the data set: Inhibition of 3H-spiroperidol binding to dopamine D2 receptors in rat brain in vitro. To be noted: 3H-spiroperidol 0.5 nM, membranes from rat corpus striatum; read-out: 3H Spiroperidole (D2) binding IC50. The protocol: Inhibition of 3H-spiroperidol Binding to Dopamine D2 Receptors in Rat Brain in vitro
By this method the inhibition by drugs of the binding of the D2 antagonist ^3H-spiroperidol (0.5 nM) to D2 receptors in membranes from rat corpus striatum is determined in vitro. Accordingly, this is a test for affinity for the dopamine D2 receptor.

The next data set in a line: Cataleptogenic effect. More on the design: species or system rats. To be noted: rat, in vivo; 1-6 h, sc; read-out: Catalepsy ED50. The text has this: Evaluation of cataleptogenic effects of the compounds of the invention was made according to the method of Sanchez, C. et al.; Drug Dev. Res. 1991, 22, 239-250.
A further data set addresses T1, 5-HT1A receptors (Rattus norvegicus, UniProt P19327).
T1 sequence (P19327 1-422): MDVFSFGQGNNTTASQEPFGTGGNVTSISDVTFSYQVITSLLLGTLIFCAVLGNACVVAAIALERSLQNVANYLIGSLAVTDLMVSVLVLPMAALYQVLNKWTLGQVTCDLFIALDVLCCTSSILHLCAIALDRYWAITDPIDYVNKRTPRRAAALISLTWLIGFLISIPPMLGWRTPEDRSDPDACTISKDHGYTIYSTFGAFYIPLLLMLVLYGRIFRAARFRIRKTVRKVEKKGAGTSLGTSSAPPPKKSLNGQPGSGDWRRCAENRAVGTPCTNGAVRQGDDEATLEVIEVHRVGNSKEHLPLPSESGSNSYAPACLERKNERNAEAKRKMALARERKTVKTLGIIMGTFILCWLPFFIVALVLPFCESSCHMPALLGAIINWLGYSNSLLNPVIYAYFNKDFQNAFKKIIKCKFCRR
Nature of the data set: Inhibition of 3H-8-OH-DPAT binding to serotonin 5-HT1A receptors in rat brain in vitro. Also noted: 5-HT1A receptors in membranes from rat brain minus cerebellum; from tissue; host or cells: rat brain minus cerebellum (membranes). As to conditions: 3H-8-OH-DPAT 1 nM, membranes from rat brain minus cerebellum. How it is done: Inhibition of ^3H8-OH-DPAT Binding to Serotonin 5-HT1A Receptors in Rat Brain in vitro
By this method the inhibition by drugs of the binding of the 5-HT1A agonist 3H-8-OH-DPAT (1 nM) to 5-HT1A receptors in membranes from rat brain minus cerebellum is determined in vitro. Accordingly, this is a test for affinity for the 5-HT1A receptor. The test was performed as described by Hyttel et al., Drug Dev. Res. 1988, 15, 389-404.

Sequence of dopamine D2 receptors (P61169 1-415 isoform P61169-2): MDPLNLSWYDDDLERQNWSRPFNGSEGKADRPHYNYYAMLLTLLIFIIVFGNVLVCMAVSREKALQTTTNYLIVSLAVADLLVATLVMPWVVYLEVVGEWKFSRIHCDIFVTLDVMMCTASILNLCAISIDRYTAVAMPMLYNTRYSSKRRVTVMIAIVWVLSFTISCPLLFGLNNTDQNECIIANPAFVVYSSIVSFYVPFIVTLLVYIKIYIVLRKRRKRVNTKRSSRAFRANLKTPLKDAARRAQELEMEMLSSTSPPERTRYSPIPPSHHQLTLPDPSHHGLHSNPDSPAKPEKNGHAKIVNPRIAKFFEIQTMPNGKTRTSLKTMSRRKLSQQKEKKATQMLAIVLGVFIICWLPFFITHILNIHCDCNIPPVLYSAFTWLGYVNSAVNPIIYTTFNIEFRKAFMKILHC

In the case of `CC(C)(C)COc1ccccc1C1CCN(CCCCN2CCN(C3CCCCC3)C2=O)CC1.O=C(O)C(=O)O`, the melting point fell in the range of 162 to 168 °C.
In turn, `CC(C)Oc1ccccc1C1CCN(CCCCn2ccn(C34CC5CC(CC(C5)C3)C4)c2=O)CC1.O=C(O)C(=O)O` returned a melting point of 116 to 122 °C.
Still for that read-out and setting: the same measure for `CC(C)Oc1ccccc1C1=CCN(CCCCn2ccn(C34CC5CC(CC(C5)C3)C4)c2=O)CC1.O=C(O)C(=O)O`: 104 to 109 °C; for `O=C1N(CCCCN2CCN(c3ccccc3OS(=O)(=O)C(F)(F)F)CC2)CCN1C1CCCCC1` (as salt: hydrochloride) [Compound 7b, 3-Cyclohexyl-1-[4-[4-[2-(2-trifluoromethylsulfonyloxy)phenyl]-1-piperazinyl]butan-1-yl]-2-imidazolidinone, hydrochloride]: 153 to 154 °C.
Turning to `CC(C)Oc1ccccc1N1CCN(CCCCN2CCN(C3CCCCC3)C2=O)CC1.O=C(O)C(=O)O` [Compound 4a, 3-Cyclohexyl-1-[4-[4-[2-(2-propyloxy)phenyl]-1-piperazinyl]butan-1-yl]-2-imidazolidinone, Oxalate], the IC50 on dopamine D2 receptors turned out to be 6.4 nM; at 5-HT1A receptors it was 1.8 nM. Besides, the median effective dose (ED50) in the data set “Cataleptogenic effect” is more than 38 µmol/kg.
Turning to `CC(C)Oc1ccccc1N1CCN(CCCCN2CCN(c3ccc(F)cc3)C2=O)CC1` [Compound 4b, 3-(4-Fluorophenyl)-1-[4-[4-[2-(2-propyloxy)phenyl]-1-piperazinyl]butan-1-yl]-2-imidazolidinone], the melting point lay within 135 to 137 °C. The 50% inhibitory concentration (IC50) on dopamine D2 receptors was found to be 3.9 nM. The ED50 in “Cataleptogenic effect” is more than 44 µmol/kg. Besides, the IC50 at 5-HT1A receptors was 2.2 nM.
For `Cl.Cl.O=C1N(CCCCN2CCN(c3ccccc3OC3CCCC3)CC2)CCN1C1CCCCC1` [Compound 4c, 3-Cyclohexyl-1-[4-[4-(2-cyclopentyloxyphenyl)-1-piperazinyl]butan-1-yl]-2-imidazolidinone, dihydrochloride], in that order: 182 to 193 °C, 13 nM, more than 37 µmol/kg and 5.4 nM.
`O=C1N(CCCCN2CCN(c3ccccc3OC3CCCC3)CC2)CCN1c1ccc(F)cc1` [Compound 4d, 1-[4-[4-(2-Cyclopentyloxyphenyl)-1-piperazinyl]butan-1-yl]-3-(4-fluorophenyl)-2-imidazolidinone] gave a melting point of 111 to 116 °C. The IC50 on dopamine D2 receptors worked out at 15 nM. Also, in the data set “Cataleptogenic effect”, the ED50 is more than 42 µmol/kg. Moreover, the IC50 on 5-HT1A receptors came out at 4 nM.
For `CC(C)Oc1ccccc1N1CCN(CCCN2CCN(c3ccccc3)C2=O)CC1` [Compound 4e, 1-[3-[4-(2-(2-propyloxy)phenyl)-1-piperazinyl]-1-propyl]-3-phenyl-2-imidazolidinone], in that order: 167 to 168 °C, 24 nM, more than 34 µmol/kg and 40 nM.
Consider `CC(C)Oc1ccccc1C1CCN(CCCCN2CCN(c3ccc(F)cc3)C2=O)CC1.O=C(O)C(=O)O` [Compound 6a, 3-(4-Fluorophenyl)-1-[4-[4-[2-(2-propyloxy)phenyl]-1-piperidinyl]butan-1-yl]-2-imidazolidinone, Oxalate], for which the IC50 stood at 7.9 nM on dopamine D2 receptors and 4.8 nM on 5-HT1A receptors. Moreover, the ED50 in the data set “Cataleptogenic effect” is more than 44 µmol/kg.
With `CC(C)Oc1ccccc1C1CCN(CCCCN2CCN(C3CCCCC3)C2=O)CC1.O=C(O)C(=O)O` [Compound 6b, 3-Cyclohexyl-1-[4-[4-[2-(2-propyloxy)phenyl]-1-piperidinyl]butan-1-yl]-2-imidazolidinone, oxalate], the melting point fell in the range of 138 to 141 °C. Moreover, the IC50 on dopamine D2 receptors came to 8.7 nM. Further, the median effective dose (ED50) in the data set “Cataleptogenic effect” was more than 38 µmol/kg. The same compound displayed a 50% inhibitory concentration (IC50) on 5-HT1A receptors of 5.4 nM.
The compound `CC(C)Oc1ccccc1C1CCN(CCCN2CCN(C3CCCCC3)C2=O)CC1.O=C(O)C(=O)O` [Compound 6c, 3-Cyclohexyl-1-[3-[4-[2-(2-propyloxy)phenyl]-1-piperidinyl]-1-propyl]-2-imidazolidinone, oxalate] displayed a melting point of 136 to 139 °C. The half-inhibitory concentration (IC50) on dopamine D2 receptors is 110 nM. The compound also returned an IC50 on 5-HT1A receptors of 35 nM.
`CC(C)Oc1ccccc1C1CCN(CCCCN2CCN(C(C)C)C2=O)CC1.O=C(O)C(=O)O` [Compound 6d, 3-(2-Propyl)-1-[4-[4-[2-(2-propyloxy)phenyl]-1-piperidinyl]-1-butyl]-2-imidazolidinone, oxalate] returned a melting point of 82 to 84 °C. For the same compound, the IC50 on dopamine D2 receptors stood at 7.7 nM. Moreover, the 50% effective dose (ED50) in “Cataleptogenic effect” was more than 41 µmol/kg. This compound registered a half-inhibitory concentration (IC50) on 5-HT1A receptors of 5 nM.
`CC(C)Oc1ccccc1C1CCN(CCCCCCN2CCN(C3CCCCC3)C2=O)CC1.O=C(O)C(=O)O` [Compound 6e, 3-Cyclohexyl-1-[6-[4-[2-(2-propyloxy)phenyl]-1-piperidinyl]-1-hexyl]-2-imidazolidinone, oxalate]: the melting point lay within 77 to 79 °C. Further, the IC50 on dopamine D2 receptors was found to be 16 nM. Besides, the ED50 in the data set “Cataleptogenic effect” was more than 33 µmol/kg. Besides, the IC50 on 5-HT1A receptors is 20 nM.
Compound `O=C(O)C(=O)O.O=C1N(CCCCN2CCC(c3ccccc3OCC3CC3)CC2)CCN1C1CCCCC1` [Compound 6f, 3-Cyclohexyl-1-[4-[4-[2-(cyclopropylmethoxy)phenyl]-1-piperidinyl]butan-1-yl]-2-imidazolidinone, oxalate] yielded a melting point of 186 to 193 °C. The IC50 at dopamine D2 receptors was 37 nM. Besides, the IC50 on 5-HT1A receptors stood at 26 nM.
As for `CC(C)Oc1ccccc1C1CCN(CCCCn2ccn(C3CCCCC3)c2=O)CC1.O=C(O)C(=O)O` [Compound 6h, 3-Cyclohexyl-1-[4-[4-[2-(2-propyloxy)phenyl]-1-piperidinyl]butan-1-yl]-1,3-dihydroimidazol-2-one, oxalate], the melting point was in the range of 68 to 71 °C. Moreover, the concentration for half-maximal inhibition (IC50) on dopamine D2 receptors amounted to 10 nM. Besides, the ED50 in “Cataleptogenic effect” was more than 38 µmol/kg. At 5-HT1A receptors, the half-inhibitory concentration (IC50) came out at 4.1 nM.
As for `O=C1N(CCCCN2CCC(c3ccccc3OS(=O)(=O)C(F)(F)F)CC2)CCN1c1ccc(F)cc1` [Compound 7a, 3-(4-Fluorophenyl)-1-[4-[4-[2-(2-trifluoromethylsulfonyloxy)phenyl]-1-piperidinyl]butan-1-yl]-2-imidazolidinone], the IC50 at dopamine D2 receptors amounted to 41 nM; on 5-HT1A receptors, 37 nM.
With `O=C1N(CCCCN2CCN(c3ccccc3OS(=O)(=O)C(F)(F)F)CC2)CCN1C1CCCCC1` [Compound 7b, 3-Cyclohexyl-1-[4-[4-[2-(2-trifluoromethylsulfonyloxy)phenyl]-1-piperazinyl]butan-1-yl]-2-imidazolidinone, hydrochloride], the figures for the IC50 on dopamine D2 receptors and at 5-HT1A receptors were 49 nM and 42 nM, respectively. Besides, the ED50 in the data set “Cataleptogenic effect” is more than 35 µmol/kg.
In turn, `O=C1N(CCCCN2CCN(c3ccccc3OS(=O)(=O)C(F)(F)F)CC2)CCN1c1ccc(F)cc1` [Compound 7c, 3-(4-Fluorophenyl)-1-[4-[4-[2-(2-trifluoromethylsulfonyloxy)phenyl]-1-piperazinyl]butan-1-yl]-2-imidazolidinone] gave a melting point of 68 to 70 °C. On dopamine D2 receptors, the IC50 was determined as 57 nM. In addition, in “Cataleptogenic effect”, the ED50 is more than 37 µmol/kg. This compound also had an IC50 on 5-HT1A receptors of 15 nM.
Regarding `CC(C)Oc1ccccc1C1=CCN(CCCCN2CCN(C3CCCCC3)C2=O)CC1.O=C(O)C(=O)O` [Compound 9a, 3-Cyclohexyl-1-[4-[4-[2-(2-propyloxy)phenyl]-1,2,3,6-tetrahydropyridin-1-yl]butan-1-yl]-2-imidazolidinone Oxalate], the values for the IC50 on dopamine D2 receptors and at 5-HT1A receptors were 8.7 nM and 9 nM, respectively. The 50% effective dose (ED50) in the data set “Cataleptogenic effect” is more than 38 µmol/kg.
With `CC(C)Oc1ccccc1C1=CCN(CCCCN2CCN(c3ccc(F)cc3)C2=O)CC1.O=C(O)C(=O)O` [Compound 9b, 3-(4-Fluorophenyl)-1-[4-[4-[2-(2-propyloxy)phenyl]-1,2,3,6-tetrahydropyridin-1-yl]butan-1-yl]-2-imidazolidinone oxalate], the melting point lay in the range of 150 to 152 °C. Besides, the IC50 on dopamine D2 receptors was found to be 11 nM. Besides, the median effective dose (ED50) in the data set “Cataleptogenic effect” was more than 37 µmol/kg. The half-inhibitory concentration (IC50) on 5-HT1A receptors was 2.8 nM.
`CC(C)Oc1ccccc1C1=CCN(CCCCn2ccn(C3CCCCC3)c2=O)CC1` [Compound 9d, 3-Cyclohexyl-1-[4-[4-[2-(2-propyloxy)phenyl]-1,2,3,6-tetrahydropyridin-1-yl]butan-1-yl]-2,3-dihydroimidazol-2-one]: the IC50 at dopamine D2 receptors is 27 nM; on 5-HT1A receptors, 26 nM.
`O=C(CCCN1CCC(O)(c2ccc(Cl)cc2)CC1)c1ccc(F)cc1` [haloperidol, reference compound]: the 50% effective dose (ED50) in “Cataleptogenic effect” came to 0.36 µmol/kg.

For the origin of these results see US6514993B1, “Serotonin 5-HT1A and dopamin D2 receptor ligands” (H. Lundbeck A/S, priority 1994, dated 2003).
